Data set [1] relates to U87 cells. The data set can be described thus: In vitro cytotoxicity, CCK-8 assay. The data set is classed as cell-based, human. As to conditions: for cell viability: 48 h, CCK-8; for IC50: U87, 48 h, CCK-8, mean ± SD (n = 3). The procedure: (§1) Human HepG2 hepatocellular carcinoma cells and human U87 glioblastoma cells were purchased from Procell Life Science & Technology Co., Ltd. (Wuhan, China), human A549 lung carcinoma cells were obtained from the School of Basic Medical Sciences, Chengde Medical University, human LO2 normal hepatic cells were purchased from Jennio Biotech Co., Ltd. (Guangzhou, China). The cells were cultured in DMEM (HepG2), MEM containing 1% non-essential amino acids (U87), and RPMI-1640 (A549 and LO2), supplemented with 10% fetal bovine serum (FBS) and 1% penicillin/streptomycin at 37 °C in a humidified atmosphere with 5% CO2.
(§2) A549, HepG2, U87, and LO2 cells were each seeded in 96-well cell culture plates at a density of 6 × 10^3 cells per well and incubated at 37 °C for 24 h. Then, cells were treated with serial concentrations of free DOX or the peptide–DOX conjugates for 48 h. After incubation, CCK-8 (10 μL) was added to each well and incubated for an additional 2 h. The absorbance of each well was measured at 450 nm with a reference wavelength of 630 nm by using a Multiskan GO microplate reader (Thermo Fisher Scientific, Waltham, MA, USA). Data for each cell line treated with free DOX or PDCs were obtained from three independent experiments.

Data set [2] has as its system A549 cells. The data set can be described thus: In vitro cytotoxicity, CCK-8 assay. Format: cell-based, human. As to conditions: for cell viability: 48 h, CCK-8. The procedure:
as §1, §2
A general note: Formazan colour is commonly taken as a measure of viable cells.

The test system of data set [3] is HepG2 cells. The data set can be described thus: In vitro cytotoxicity, CCK-8 assay. The data set is classed as cell-based, human. As to conditions: for cell viability: 48 h, CCK-8. Here is the method: as §1, §2
Data set [4] is described as follows: Reduction-triggered degradation / drug release by GSH. The data set is classed as physicochemical. The note with it: 37 °C; for remaining at 1 h, 100 µM: read-out: conjugate remained undegraded; for t1/2 of degradation in 5 mM GSH: intact conjugate by HPLC, mean ± SD. Here is the method: A stock solution of ^LT7-SS-DOX or ^DT7-SS-DOX was diluted by adding 5 mM or 5 μM GSH dissolved in acetonitrile-PBS (3:7, v/v) to a final volume of 800 μL with 100 μM conjugate, and the mixture was incubated at 37 °C. Aliquots (100 μL) were taken from the incubation solution at scheduled time intervals and diluted with acetonitrile–PBS (3:7, v/v, 200 μL). After filtration, the intact conjugate that remained in the sample was analyzed by HPLC.

The nature of data set [5]: In vitro stability of conjugates in mouse serum. The data set is classed as in vitro ADME. The note with it: 37 °C; for half-life at 100 µM: mouse serum (200 µL in 800 µL, diluted with water), 80 μL of 1 mM conjugate stock + 520 μL ultra-pure water + 200 μL mouse serum, methanol quench, centrifugation, intact PDC by HPLC (C18, 254 nm), mean ± SD, read-out: t1/2 of degradation in mouse serum (converted). The procedure:
The in vitro stability experiment of the conjugates was conducted by co-incubation with mouse serum, as previously described, with minor modifications. An 80 μL of ^LT7-SS-DOX or ^DT7-SS-DOX stock solution (1 mM) was diluted by adding ultra-pure water (520 μL) and mouse serum (200 μL). The mixture was incubated at 37 °C, aliquots (100 μL) were taken at scheduled time intervals, and then methanol (300 μL) was added to terminate the incubation. After centrifugation at 10,000 rpm for 10 min, the intact PDC that remained in the supernatant was analyzed by HPLC.

Data set [6] has as its system LO2 cells. The data set can be described thus: In vitro cytotoxicity, CCK-8 assay. Format: cell-based, human. The note with it: LO2, 48 h, CCK-8, mean ± SD (n = 3). Here is the method:
as §1, §2

Data set [7] concerns U87 cells. The data set can be described thus: Confocal microscopy analysis of cellular uptake. Format: cell-based, human. The procedure:
(§3) A549, HepG2, U87, or LO2 cells were seeded on glass coverslips (5 × 10^4 cells/well) in 24-well cell culture plates and incubated at 37 °C for 24 h. Then, cells were treated with the peptide–DOX conjugates (equivalent DOX concentration of 10 μM) for 4 and 12 h, respectively. Cells treated with free DOX (10 μM) for 4 h were used as the positive control. After the drugs in each well were discarded, cells were washed three times with PBS and fixed with 4% paraformaldehyde for 12 h. Cell nuclei were stained with DAPI for 8 min. The fluorescent images of cells were observed by using a confocal laser scanning microscope (Olympas FV3000).
(§4) After removal of the peptide solution, cells were washed three times with PBS and incubated with the ^DT7-SS-DOX conjugate (equivalent DOX concentration of 10 μM) for 4 h. Cell fixation, staining, and cellular uptake analysis by confocal microscopy were conducted as aforementioned methods.

Data set [8] concerns A549 cells. The data set can be described thus: Confocal microscopy analysis of cellular uptake. Format: cell-based, human. The procedure: as §3, §4
The subject of data set [9] is HepG2 cells. The data set can be described thus: Confocal microscopy analysis of cellular uptake. Format: cell-based, human. Here is the method:
as §3, §4

For data set [10], the system named is LO2 cells. The data set can be described thus: Confocal microscopy analysis of cellular uptake. The data set is classed as cell-based, human. The note with it: LO2, 10 μM, 4 h, confocal laser scanning microscopy. Here is the method:
as §3

The mark [11] stands for this setting: 5 mM GSH in acetonitrile-PBS (3:7, v/v), 100 μM conjugate, 1 h, HPLC, n = 3.
Where [12] appears, read: 5 mM GSH in acetonitrile-PBS (3:7, v/v), 100 μM conjugate, n = 3.

Where two headings read alike, the source gives them in different places. Square brackets hold non-standard residues; d marks the D form. Peptide text beside a SMILES is read from it. * marks the point of attachment. X1 = COc1cccc2c1C(=O)c1c(O)c3c(c(O)c1C2=O)C[C@@](O)(C(=O)CO)C[C@@H]3O[C@H]1C[C@H](NC(=O)CCS*)[C@H](O)[C@H](C)O1

What is called cell viability is a per cent measure of how many cells are alive, often set against a control. Low values mean more harm to the cells, high ones less harm to the cells. The IC50 is the concentration that gives 50% inhibition. A high value points to a need for much substance.

For `CC[C@H](C)[C@H](NC(=O)[C@H](C)NC(=O)[C@H](Cc1c[nH]cn1)NC(=O)[C@@H](N)CSSCCC(=O)N[C@H]1C[C@H](O[C@H]2C[C@](O)(C(=O)CO)Cc3c(O)c4c(c(O)c32)C(=O)c2c(OC)cccc2C4=O)O[C@@H](C)[C@H]1O)C(=O)N[C@@H](Cc1ccc(O)cc1)C(=O)N1CCC[C@H]1C(=O)N[C@@H](CCCNC(=N)N)C(=O)N[C@@H](Cc1c[nH]cn1)C(=O)O` [^LT7-SS-DOX], the cell viability in data set [1] (U87, equal DOX concentration of 20 µM) was 95.1%; in data set [1] (U87, equal DOX concentration of 40 µM), 41.0%; in data set [2] (A549, equal DOX concentration of 20 µM), 83.2%; in data set [2] (A549, equal DOX concentration of 40 µM), 67.2%; in data set [3] (HepG2, equal DOX concentration of 20 µM), 73.1%; in data set [3] (HepG2, equal DOX concentration of 40 µM), 61.5%. Also, the remaining at 1 h, 100 µM in data set [4] (5 μM GSH in acetonitrile-PBS (3:7, v/v), 100 μM conjugate, 1 h, HPLC, n = 3) came out at 93.7%. Further, the conjugate remained undegraded entry in [4] (setting [11]) is reported as “completely degraded”. Further, in [4] (setting [12]), the “t1/2 of degradation in 5 mM GSH” value stood at 0.26 ± 0.01 h. Further, the “intact conjugate in mouse serum at 1 h” value in data set [5] (80 μL of 1 mM stock + 520 μL water + 200 μL mouse serum, 1 h, HPLC) was “almost entirely degraded”. Moreover, the half-life at 100 µM in [5] is 0.37 ± 0.02 h.
With `CC[C@@H](C)[C@@H](NC(=O)[C@@H](Cc1ccc(O)cc1)NC(=O)[C@H]1CCCN1C(=O)[C@@H](CCCNC(=N)N)NC(=O)[C@H](N)Cc1c[nH]cn1)C(=O)N[C@H](C)C(=O)N[C@H](Cc1c[nH]cn1)C(=O)N[C@H](CSSCCC(=O)N[C@H]1C[C@H](O[C@H]2C[C@](O)(C(=O)CO)Cc3c(O)c4c(c(O)c32)C(=O)c2c(OC)cccc2C4=O)O[C@@H](C)[C@H]1O)C(=O)O` [^DT7-SS-DOX] (H-[dH][dR][dP][dY][dI][dA][dH][dC](X1)-OH), the 50% inhibitory concentration (IC50) was 5.7 ± 0.22 µM in data set [1]; over 100 µM in data set [6]; 20.6 ± 4.81 µM in data set [2] (A549, 48 h, CCK-8, mean ± SD (n = 3)); 7.01 ± 1.64 µM in data set [3] (HepG2, 48 h, CCK-8, mean ± SD (n = 3)). For the same compound, the “fluorescence intensity after pre-treatment with TfR affinity peptide versus without (TfR competitive inhibition assay)” value in data set [7] (U87, pre-treated with TfR affinity peptide 100 μM 8 h, then conjugate at equivalent DOX 10 μM for 4 h) is reported as “lower”; in data set [8] (A549, pre-treated with TfR affinity peptide 100 μM 8 h, then conjugate at equivalent DOX 10 μM for 4 h), “lower”; in data set [9] (HepG2, pre-treated with TfR affinity peptide 100 μM 8 h, then conjugate at equivalent DOX 10 μM for 4 h), “lower”. The remaining at 1 h, 100 µM in data set [4] (setting [11]) came to 72.1%. Further, the “t1/2 of degradation in 5 mM GSH” value in data set [4] (setting [12]) was determined as 1.93 ± 0.13 h. The “t1/2 in 5 mM GSH, times longer than that of ^LT7-SS-DOX” value in [4] (5 mM GSH) is about 8 times. Besides, in data set [5], the half-life at 100 µM is 8.58 ± 0.85 h.
With `COc1cccc2c1C(=O)c1c(O)c3c(c(O)c1C2=O)C[C@@](O)(C(=O)CO)C[C@@H]3O[C@H]1C[C@H](N)[C@H](O)[C@H](C)O1` [DOX, Doxorubicin], the IC50 was found to be 1.65 ± 0.2 µM in data set [1] and 1.29 ± 0.18 µM in data set [6]. Moreover, the “location of red (DOX) fluorescence in cells” value was “located in the cell nuclei” in data set [7] (U87, 10 μM, 4 h, confocal laser scanning microscopy); “located in the cell nuclei” in data set [8] (A549, 10 μM, 4 h, confocal laser scanning microscopy); “located in the cell nuclei” in [9] (HepG2, 10 μM, 4 h, confocal laser scanning microscopy); “located in the cell nuclei” in [10].

These data come from article PMC11052316, “New Transferrin Receptor-Targeted Peptide–Doxorubicin Conjugates: Synthesis and In Vitro Antitumor Activity” (Molecules, 2024).
